Source: article PMC12446003, “Pharmacological characterization of linaprazan glurate (X842), a novel potassium-competitive acid blocker, in vitro and in vivo” (Frontiers in Pharmacology, 2025)
“And” between values parts separate entries of the source, which are not always exact repeats. Equal entries are not always repeated. Where two headings read alike, the source gives them in different places.

Experiments:
[1] = target: T1, Gastric H+/K+-ATPase (Oryctolagus cuniculus, UniProt P27112); assay: Inhibition of H+/K+-ATPase activity (Malachite Green Pi assay); assay type: biochemical, rabbit
T1 construct: Gastric H^+/K^+-ATPase was prepared from rabbit glands; from tissue; host or cells: rabbit gastric glands
Description: The H^+/K^+-ATPase inhibition reaction was performed in buffer (50 mM Tris-HCl, 5 mM magnesium chloride, 10 μM valinomycin, pH 6.5) with or without 20 mM potassium chloride (KCl), and inorganic phosphate (Pi) was detected using Malachite Green solution, made from 0.1% malachite green, 1.5% hexaammonium molybdate, and 0.2% Tween-20 in a ratio of 100:25:2 ([Skou, 1982]; [Feng et al., 2011]). Gastric H^+/K^+-ATPase was prepared from rabbit glands, as described previously ([Kondo et al., 2012]; [Arikawa et al., 2012]). The reaction occurred in a 96-well plate with a total volume of 50 µL/well, including buffer, enzyme, ATP, and drug. After 30 min at 37 °C for enzyme stability, ATP was added at 0.2 mM to start the reaction, which was optimized from the titration experiments. The reaction lasted 20 min at 37 °C, followed by the addition of Malachite Green for the colorimetric assay. The enzyme control wells contained the full enzyme system, while the buffer control wells contained only buffer to correct for background values. Absorbance was measured at 620 nm using a plate reader (SpectraMax M5). The inhibition rate was calculated using the following formula, accounting for the enzyme activity in the presence and absence of K^+: Inhibition Rate %=ODwith K+and enzyme,without drug−ODwith K+and enzyme,with drug /ODwith K+and enzyme,without drug−ODwithout K+and enzyme,without drug×100 where “OD with K^+ and enzyme, without drug” is the optical density measured at 620 nm in the presence of K^+ and enzyme, without the tested drug (enzyme control wells); “OD with K^+ and enzyme, with drug” is the optical density measured at 620 nm in the presence of K^+ and enzyme, with the tested drug; and “OD without K^+ and enzyme, without drug” is the optical density measured at 620 nm in the absence of K^+ and enzyme, without the tested drug (buffer control wells).

[2] = test system: gastric acid secretion in pylorus-ligated rats; assay: Gastric acid inhibition in pylorus-ligated rats; assay type: in vivo
Description: The rats were fasted overnight with ad libitum access to water. Drugs and vehicle were administered orally to rats in a blinded manner. The pylorus was ligated under ether anesthesia within 1 h after drug and vehicle administration, and the abdomen was closed by suturing. At 4 h after pyloric ligation, the rats were sacrificed by CO2 asphyxiation, and the stomach was removed ([Hori et al., 2010]). The gastric contents were collected and centrifuged at 3,000 rpm for 10 min. The volume of each sample was measured, the gastric acid concentration was determined by acid-base titration, and the total acidity was calculated.

[3] = test system: gastric pH; assay: Phase I gastric pH holding time ratio; assay type: in vivo, humans; conditions: unpublished Phase I data
[4] = test system: rats; assay: Toxicity in rats (data to be published); assay type: in vivo
[5] = test system: dogs; assay: Toxicity in dogs (data to be published); assay type: in vivo
[6] = test system: histamine-stimulated acid secretion in pylorus-ligated rats; assay: Histamine-stimulated acid secretion in pylorus-ligated rat models; assay type: in vivo, Sprague-Dawley rats; conditions: histamine 30 mg/kg s.c., pylorus-ligated male rats
Description: 1.1 Histamine-stimulated acid secretion in pylorus-ligated rat models
The rats were fasted overnight with ad libitum access to water. Vehicle or X842 (2 mg/kg, 8 mg/kg) was administered orally to male Sprague-Dawley rats using a feeding catheter ina blinded manner. One hour after dosing, the pylorus was ligated under isoflurane anesthesia, and histamine (30 mg/kg/10 mL) was immediately administered subcutaneously. At 3 hours after histamine administration, the rats were sacrificed by carbon dioxide asphyxiation. The gastric contents were collected from the removed stomach. The gastric contents were collected and centrifuged at 3000 rpm for 10 minutes. The volume of each sample was measured, the gastric acid concentration was determined by acid-base titration, and the total acidity was […]
2.Supplementary Figures and Tables
2.1 Supplementary Figures

[7] = test system: acid secretion; set-up: method as in Gedda et al., 2007; Scarpignato and Hunt, 2024; conditions: rats; ref Gedda et al., 2007; Scarpignato and Hunt, 2024; cited from earlier work
[8] = in the presence of K+ (20 mM KCl), pH 6.5, read-out: IC50, H+/K+-ATPase inhibition
[9] = in the presence of potassium ions, rabbit gastric glands, read-out: IC50 (Figure 7A)

T1 sequence (P27112 whole entry): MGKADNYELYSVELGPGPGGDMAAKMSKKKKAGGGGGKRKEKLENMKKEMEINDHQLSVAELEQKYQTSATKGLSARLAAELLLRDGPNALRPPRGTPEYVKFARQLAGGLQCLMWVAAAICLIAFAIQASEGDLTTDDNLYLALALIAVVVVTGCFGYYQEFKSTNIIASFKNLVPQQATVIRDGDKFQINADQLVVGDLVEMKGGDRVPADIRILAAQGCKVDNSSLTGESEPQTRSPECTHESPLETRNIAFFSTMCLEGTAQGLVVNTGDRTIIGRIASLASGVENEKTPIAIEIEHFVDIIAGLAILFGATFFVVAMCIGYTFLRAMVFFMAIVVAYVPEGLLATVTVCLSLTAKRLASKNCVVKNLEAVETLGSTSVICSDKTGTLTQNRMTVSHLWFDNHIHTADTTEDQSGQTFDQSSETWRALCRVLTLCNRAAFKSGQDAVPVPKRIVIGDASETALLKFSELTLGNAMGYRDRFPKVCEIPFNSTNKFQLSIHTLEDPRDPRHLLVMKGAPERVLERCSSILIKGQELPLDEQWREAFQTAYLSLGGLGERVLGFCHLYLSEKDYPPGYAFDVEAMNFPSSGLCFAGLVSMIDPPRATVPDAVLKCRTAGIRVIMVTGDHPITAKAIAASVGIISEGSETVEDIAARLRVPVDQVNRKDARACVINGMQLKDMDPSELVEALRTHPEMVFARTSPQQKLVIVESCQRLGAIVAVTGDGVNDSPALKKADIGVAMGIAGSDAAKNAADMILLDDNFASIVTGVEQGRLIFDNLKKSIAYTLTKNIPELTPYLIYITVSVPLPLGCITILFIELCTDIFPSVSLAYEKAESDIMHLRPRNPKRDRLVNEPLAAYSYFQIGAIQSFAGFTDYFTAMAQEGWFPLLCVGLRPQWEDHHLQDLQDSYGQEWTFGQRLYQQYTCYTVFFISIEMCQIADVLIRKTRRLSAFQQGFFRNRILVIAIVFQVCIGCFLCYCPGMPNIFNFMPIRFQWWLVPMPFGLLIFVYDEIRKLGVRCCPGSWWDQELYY
T1 sequence (P18597 whole entry partner): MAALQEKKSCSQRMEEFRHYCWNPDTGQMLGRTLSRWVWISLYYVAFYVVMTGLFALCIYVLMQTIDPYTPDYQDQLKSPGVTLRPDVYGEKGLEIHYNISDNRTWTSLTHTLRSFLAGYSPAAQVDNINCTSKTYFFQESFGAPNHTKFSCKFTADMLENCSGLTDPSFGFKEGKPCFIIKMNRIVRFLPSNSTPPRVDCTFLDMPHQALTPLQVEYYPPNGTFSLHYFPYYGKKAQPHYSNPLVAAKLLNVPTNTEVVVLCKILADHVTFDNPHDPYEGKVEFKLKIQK

Row | SMILES | Inhibitory effect on H+/K+-ATPase in the absence of K+ [1] | Fold lower inhibitory activity against H+/K+-ATPase compared with linaprazan ([1]; in the presence of K+) | IC50 [1, 8] | IC50 [1, 9] | Duration of acid suppression ([2]; after a single oral dose) | Total acidity inhibitory rate (%) ([2]; oral 0.15 mg/kg, pylorus-ligated rats (not significant)) | Total acidity inhibitory rate (%) ([2]; oral 0.5 mg/kg, pylorus-ligated rats) | Total acidity inhibitory rate (%) ([2]; oral 1.0 mg/kg, pylorus-ligated rats) | Total acidity inhibitory rate (%) ([2]; oral 1.5 mg/kg, pylorus-ligated rats) | Dose required for 50% inhibition (ID50) ([2]; oral, pylorus-ligated rats, total gastric acid) | Gastric pH ≥4 holding time ratio (HTR) ([3]; oral doses ≥50 mg, throughout the 24-h period) | Gastric pH ≥4 holding time ratio (HTR), nocturnal ([3]; oral doses ≥100 mg, nocturnal periods (12–24 h)) | Adverse effects (acute, reproductive, teratogenic, carcinogenic toxicity) [4] | Adverse effects (acute, reproductive, teratogenic, carcinogenic toxicity) [5] | Total acidity inhibitory rate (%) ([6]; oral 2 mg/kg) | Total acidity inhibitory rate (%) ([6]; oral 8 mg/kg) | Duration of inhibitory effect on acid secretion [7]
1 | Cc1cccc(C)c1CNc1cc(C(=O)NCCOC(=O)CCCC(=O)O)cn2c(C)c(C)nc12 [X842, linaprazan glurate] | No measurable inhibitory effect | ~10 fold | 436 nM | 436 nM | at least 24 h | 6% | 44% | 61% | 85% | 0.55 mg/kg | > 50% | > 50% | No significant adverse effects | No significant adverse effects | 66% | 71% | –
2 | Cc1cccc(C)c1CNc1cc(C(=O)NCCO)cn2c(C)c(C)nc12 [linaprazan] | No measurable inhibitory effect | – | 40 nM and 40.2 nM | 40.2 nM | – | – | – | – | – | – | – | – | – | – | – | – | 24 h
